The source of these data is paper PMC5086919, “Antileukemic Scalarane Sesterterpenoids and Meroditerpenoid from Carteriospongia (Phyllospongia) sp., Induce Apoptosis via Dual Inhibitory Effects on Topoisomerase II and Hsp90” (Scientific Reports, 2016).

The test system of test [1] is Hsp90 client proteins in Molt 4 cells. In words: Western blot of Hsp90, Hsp70, HSF 1 and Hsp90 client proteins. It counts as cell-based, human. The note with it: 0.0625 μg/mL, different time intervals. On the procedure: (§1) It was also reported that the induction of Hsp70 is the biomarker of Hsp90 with N-terminal inhibition. Aiming to understand the relation between Hsp90 function and the expression of Hsp70 and 90 clients, we treated Molt 4 cells with 1 (0.0625 μg/mL) for different time intervals. […] The majority of Hsps accumulate in subcellular localizations that determine whether a cell is going to die or differentiate. Erythroblasts with accumulated nuclear Hsp70 continued their differentiation process during the formation of red blood cells. Furthermore, we identified the localization of Hsp70 in response to 1 treatment using immunofluorescence by confocal microscope.
Cell lysates were prepared by treating the cells for 30 min in RIPA lysis buffer, 1% Nonidet P-40, 0.5% sodium deoxycholate, 0.1% sodium dodecyl sulphate (SDS), 1 mM sodium orthovanadate, 100 μg/mL phenylmethylsulfonyl fluoride and 30 μg/mL aprotinin) (all chemicals were from Sigma)[38]. The lysates were centrifuged at 20,000 × g for 30 min, and the protein concentration in the supernatant was determined using a BCA protein assay kit (Pierce). Equal amounts of proteins were respectively separated by 7.5%, 10% or 12% of SDS-polyacrylamide gel electrophoresis and then were electrotransferred to a PVDF membrane. The membrane was blocked with a solution containing 5% non-fat dry milk TBST buffer (20 mM Tris-HCl, pH 7.4, 150 mM NaCl and 0.1% Tween 20) for 1 h and washed with TBST buffer. The protein expressions were monitored by immunoblotting using specific antibodies. These proteins were detected by an enhanced chemiluminescence kit (Pierce).

Test [2] relates to Molt 4 cells. In words: Intracellular Ca2+ accumulation, Fluo 3 flow cytometry. The format is cell-based, human. Particulars: 0.0625 μg/mL. On the procedure:
(§2) Oxidative stress is manifested by ROS overexpression and cannot be balanced by the available antioxidant machinery. Compound 1 can damage the integrity of mitochondria, which are the major production sites of the superoxide anion, […]. The induction of the intracellular formation of ROS by 1 was determined with a carboxyl derivative of fluorescein, carboxy-H2DCFDA dye using flow cytometric analysis. […] In addition, ROS generation could induce ER stress leading to mitochondria-related apoptosis. To further investigate if ER stress is involved in the apoptotic effect induced by 1, Western blot analysis was used to determine the expression of ER stress-related proteins. […] Furthermore, the effect of 1 on the release of intracellular Ca^2+, was evaluated using fluorescent calcium indicator, Fluo 3. […] The induction of the typical executor caspases-3 and −7, as well as γH2AX, was also observed using Western blot analysis (Fig. 7D). To confirm the induction of DNA damage by 1 in Molt 4 cells, a comet assay under neutral electrophoresis condition was utilized. The effect of 1 (0.0625 μg/mL) at different time intervals (0, 3, 6 and 9 h) on the level of nuclear DNA integrity was determined. […] The DNA migration was represented by the induction of DSBs in a time-dependent increase, as indicated by the abnormal tails’ sizes in the comet assay.
(§3) These assays were performed as described previously. […] In brief, the treated cells were labeled with a specific fluorescent dye for 30 min. After labeling, cells were washed with PBS and resuspended in PBS at a concentration of 1 × 10^6 cells/mL before analysis via flow cytometry.

The test system of a further test is Hsp70 in Molt 4 cells. Kind of test: Immunofluorescence localization of Hsp70, confocal microscope. It counts as cell-based, human. The procedure:
as §1
After treatment with the tested compound, cells were fixed with 4% paraformaldehyde in 50 mM HEPES buffer (pH 7.3) for 30 min, and permeabilized for 20 min with 0.2% Trition X-100 in PBS (pH 7.4). To prevent non-specific protein binding, cells were incubated with 5% BSA in PBS containing 0.05% Trition X-100 (T-PBS) for 1 h at room temperature. Cells were then incubated with the primary Hsp70 antibodies (1: 500) for 2 h and further with secondary antibodies (Alexa Fluor […] goat anti-mouse IgG (H + L) (Life Technologies, Carlsbad, CA, USA) diluted at 1:1000 for 1 h at room temperature. After washing with PBS, cells were observed under a FV1000 confocal laser scanning microscope (Olympus, Tokyo, Japan).

Test [3] deals with Molt 4 cells. In words: Annexin V/PI apoptosis assay. The format is cell-based, human. On the procedure:
The externalization of phosphatidylserine (PS) and membrane integrity were quantified using an annexin V- FITC staining kit[72]. In brief, 10^6 cells were grown in 35 mm diameter plates and were labeled with annexin V-FITC (10 μg/mL) and PI (20 μg/mL) prior to harvesting. After labeling, all plates were washed with a binding buffer and harvested. Cells were resuspended in the binding buffer at a concentration of 2 × 10^5 cells/mL before analysis by flow cytometer FACS-Calibur (Becton-Dickinson, San Jose, CA, USA) and CellQuest software. Approximately 10,000 cells were counted for each determination.

The subject of test [4] is Molt 4 cells. Kind of test: ROS generation, carboxy-H2DCFDA flow cytometry. It counts as cell-based, human. Particulars: 0.0625 μg/mL. On the procedure: as §2, §3
The subject of test [5] is Molt 4 cells. Kind of test: MMP disruption, JC-1 staining flow cytometry. The format is cell-based, human. Particulars: 0, 0.0625, 0.125 and 0.25 μg/mL, 24 h. On the procedure:
as §3

The subject of another test is Cal-27 cells. Kind of test: MTT antiproliferative assay, oral Cal-27 cells. Particulars: Homo sapiens, CAL-27, 72 h, read-out: IC50, cytotoxicity, Oral Cal-27.
The subject of test [6] is all leukemia and one lymphoma cell lines. Kind of test: MTT assay, summary statement for leukemia and lymphoma lines. Particulars: read-out: IC50 against all leukemia and one lymphoma cell lines.
From the text: (§4) Several cancer cell lines including leukemia K562, Molt 4, and HL 60 cells, prostate cancer LNCaP cells, colon cancer DLD-1 cells and breast cancer T-47D cells were used to evaluate the antiproliferative activity.
(§5) The cell lines were obtained from the American Type Culture Collection (ATCC, Manassas, VA, USA). […] Dimethyl sulfoxide (DMSO), 3-(4,5-dimethylthiazol-2-yl)-2,5-diphenyl-tetrazolium bromide (MTT) and all other chemicals were purchased from Sigma-Aldrich (St. Louis, MO, USA).
For a further test, the system named is DLD-1 cells. In words: MTT antiproliferative assay, colon cancer DLD-1 cells. The note with it: Homo sapiens, DLD-1, 72 h, read-out: IC50, cytotoxicity, Colon DLD-1.
The test system of another test is K562 cells. Kind of test: MTT antiproliferative assay, leukemia K562 cells. Particulars: Homo sapiens, K562, 72 h, read-out: IC50, cytotoxicity, Leukemia K562.

Structures are written as SMILES. Values after ≈ are worked out from the molar mass of the structure shown. Values joined by “and” are separate entries in the source; they are usually repeats but may differ in a detail not shown here. Equal entries are not always repeated.

From the text for Cal-27 cells: as §4, §5
From the text for DLD-1 cells: as §4, §5
From the text for K562 cells: as §4, §5

With `CC[C@@]1(C)CCC[C@]2(C)[C@H]3C[C@@H](OC(=O)C[C@@H](C)O)[C@]4(C)[C@@H](C=O)C(C(C)=O)=CC[C@H]4[C@]3(C)CC[C@@H]12` (relative stereo) [Compound 1, 12β-(3′β-hydroxybutanoyloxy)-20,24-dimethyl-24-oxo-scalara-16-en-25-al], the “expression of HSF 1 protein” value in test [1] was “attenuated”. For the same compound, in [1], the “expression of Hsp70” value was “increased in a time-dependent manner”. Also, the “expression of Hsp90 client proteins (p70S6k, NFκB, Raf-1, p-GSK3β, MEK 1, XIAP, MDM 2, Rb2, CDK4, HIF 1, HSF1)” value in test [1] is “suppression of Hsp90 client proteins was observed”. Further, the “expression of Hsp90 protein” value in test [1] is recorded as “did not notably attenuate the expression of Hsp90 protein”. Also, the “increase in intracellular Ca2+ accumulation compared to MFI of control” value in the test with Molt 4 cells [2] (0.5 h) is given as 1.03 folds; in the test with Molt 4 cells [2] (1 h), 1.05 folds; in the test on Molt 4 cells [2] (2 h) it was 1.06 folds; in the test with Molt 4 cells [2] (3 h), 1.37 folds; in the test with Molt 4 cells [2] (6 h), 2.41 folds; with Molt 4 cells [2] (18 h), 1.06 folds. The “localization of Hsp70” value in the test on Hsp70 in Molt 4 cells is “predominantly accumulated in cytosol”. In the test with Molt 4 cells [3] (0, 0.0625, 0.125 and 0.25 μg/mL, 24 h, annexin-V/PI), the “apoptotic population of Molt 4 cells” value is “increase in the apoptotic population”. In addition, in the test with Molt 4 cells [3] (24 h, flow cytometry), the “lowest dose inducing mitochondrial dysfunction and apoptotic cell death” value was 0.0625 µg/mL. Also, the “concentration that triggered MMP disruption and apoptosis” value in the test on Molt 4 cells [3] (Molt 4 cells, molar value in brackets) was found to be 125 nM. The “increase in ROS levels compared with MFI of control” value worked out at 2.09 fold with Molt 4 cells [4] (0.5 h), 1.51 fold with Molt 4 cells [4] (1 h), 1.06 fold with Molt 4 cells [4] (2 h) and 1.01 fold in the test with Molt 4 cells [4] (3 h). Moreover, the mitochondrial membrane potential entry in the test with Molt 4 cells [5] is listed as “disruption in mitochondrial membrane potential”. The IC50 was 0.56 µg/mL (≈ 1.12 µM) in the test on Cal-27 cells; 0.01 µg/mL and 2.08 nM in test [6]; 2.33 µg/mL (≈ 4.65 µM) in the test on DLD-1 cells; 0.01 µg/mL (≈ 0.02 µM) in the test on K562 cells.
